Counter-ions that a name gives are not always drawn.
What was measured:
NLRP3 [1] = target: T1, NLRP3 (Homo sapiens, UniProt Q96P20); assay: Human whole blood IL1β release assay (LPS + nigericin, AlphaLisa IL-1β; HWB IC50); assay type: cell-based; set-up: Human whole blood in Li-heparin tubes was obtained from healthy donors from a volunteer donor panel; from tissue; host or cells: human whole blood from healthy donors; conditions: IL-1β release
Method in brief: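 Donor Li-heparin whole blood primed with 1 μg/ml LPS, given compound (8-point half-log series, 10 μM top; DMSO 0.1% final) for 3 h at 37 °C, then nigericin 10 μM final for 1 h. Supernatant IL-1β measured by AlphaLisa; IC50 from 4-parameter variable-slope fit.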

NLRP3 [2] = target: T1, NLRP3; assay: THP-1 cells pyroptosis assay (LPS + nigericin, resazurin readout; THP IC50); assay type: cell-based; set-up: Seed THP-1 cells (25,000 cells/well) containing 1.0 μg/ml LPS in 40 μl of RPMI medium; host or cells: THP-1 cells
Method in brief: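 Human THP-1 cells, 25,000/well in serum-free RPMI with 1 μg/ml LPS, treated 3 hrs at 37° C with compound (8-point half-log, 10 μM top, 0.1% DMSO), then 5 μM nigericin 1 hr. Viability by 100 μM resazurin fluorescence after 1-2 hrs; IC50 by 4-parameter fit.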

T1 sequence (Q96P20 whole entry): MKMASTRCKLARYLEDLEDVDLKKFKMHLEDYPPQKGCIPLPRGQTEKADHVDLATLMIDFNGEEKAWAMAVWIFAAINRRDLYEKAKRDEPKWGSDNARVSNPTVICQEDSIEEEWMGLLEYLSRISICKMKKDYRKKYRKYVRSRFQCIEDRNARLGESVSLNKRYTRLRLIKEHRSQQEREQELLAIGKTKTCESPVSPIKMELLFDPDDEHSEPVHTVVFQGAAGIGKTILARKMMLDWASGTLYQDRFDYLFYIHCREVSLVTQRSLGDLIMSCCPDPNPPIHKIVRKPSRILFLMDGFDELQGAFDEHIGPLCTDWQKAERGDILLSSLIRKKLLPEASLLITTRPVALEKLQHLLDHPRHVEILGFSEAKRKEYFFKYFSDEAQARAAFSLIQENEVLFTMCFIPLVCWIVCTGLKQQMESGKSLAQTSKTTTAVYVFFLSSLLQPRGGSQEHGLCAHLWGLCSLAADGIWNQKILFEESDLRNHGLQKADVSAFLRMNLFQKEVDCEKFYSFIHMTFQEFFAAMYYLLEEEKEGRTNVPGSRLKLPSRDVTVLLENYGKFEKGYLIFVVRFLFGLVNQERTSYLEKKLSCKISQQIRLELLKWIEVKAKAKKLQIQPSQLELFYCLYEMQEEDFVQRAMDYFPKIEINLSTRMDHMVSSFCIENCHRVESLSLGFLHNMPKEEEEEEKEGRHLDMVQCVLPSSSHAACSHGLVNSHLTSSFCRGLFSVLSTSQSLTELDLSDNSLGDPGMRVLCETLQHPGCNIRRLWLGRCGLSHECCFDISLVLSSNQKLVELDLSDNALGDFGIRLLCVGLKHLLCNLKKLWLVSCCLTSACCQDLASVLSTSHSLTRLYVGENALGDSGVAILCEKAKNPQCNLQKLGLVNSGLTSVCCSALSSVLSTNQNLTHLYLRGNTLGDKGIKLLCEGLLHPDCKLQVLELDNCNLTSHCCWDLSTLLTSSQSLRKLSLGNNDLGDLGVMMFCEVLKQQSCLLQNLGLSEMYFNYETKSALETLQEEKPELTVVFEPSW

Compound | IC50 (NLRP3 [1]) | IC50 (NLRP3 [2])
[2H]C([2H])([2H])Oc1cc(-c2ccc3c(c2NC(=O)NS(=O)(=O)c2ccn(C4CC4)n2)CCC3)ccn1 [Example 279, 1-Cyclopropyl-N-((5-(2-(methoxy-d3)pyridin-4-yl)-2,3-dihydro-1H-inden-4-yl)carbamoyl)-1H-pyrazole-3-sulfonamide, sodium salt] | ≤ 500 nM | ≤ 500 nM
COc1cc(-c2cc(F)c3c(c2NC(=O)NS(=O)(=O)c2ccn(C(C)(C)CN4CCC4)n2)CCC3)ccn1 [Example 173, 1-(1-(Azetidin-1-yl)-2-methylpropan-2-yl)-N-((7-fluoro-5-(2-methoxypyridin-4-yl)-2,3-dihydro-1H-inden-4-yl)carbamoyl)-1H-pyrazole-3-sulfonamide, sodium salt] | ≤ 500 nM | ≤ 500 nM
CC(C)(C)n1ccc(S(=O)(=O)NC(=O)Nc2c(-c3ccnc(C#N)c3)ccc3c2CCC3)n1 [Example 264, 1-(tert-Butyl)-N-((5-(2-cyanopyridin-4-yl)-2,3-dihydro-1H-inden-4-yl)carbamoyl)-1H-pyrazole-3-sulfonamide, sodium salt] | ≤ 500 nM | ≤ 500 nM
COc1cc(-c2ccc3c(c2NC(=O)NS(=O)(=O)c2nn(C4CC4)cc2F)CCC3)ccn1 [Example 305, 1-Cyclopropyl-4-fluoro-N-((5-(2-methoxypyridin-4-yl)-2,3-dihydro-1H-inden-4-yl)carbamoyl)-1H-pyrazole-3-sulfonamide] | ≤ 500 nM | ≤ 500 nM
COCC(C)Oc1cc(-c2ccc3c(c2NC(=O)NS(=O)(=O)c2ccn(C(C)C)n2)CCC3)ccn1 (stereo not shown) [Example 289, 1-Isopropyl-N-((5-(2-((1-methoxypropan-2-yl)oxy)pyridin-4-yl)-2,3-dihydro-1H-inden-4-yl)carbamoyl)-1H-pyrazole-3-sulfonamide, sodium salt] | ≤ 5000 nM | ≤ 500 nM
COc1cc(-c2ccc3c(c2NC(=O)NS(=O)(=O)c2ccn(C(C)C)n2)CCCC3)ccn1 [Example 213, 1-Isopropyl-N-((2-(2-methoxypyridin-4-yl)-5,6,7,8-tetrahydronaphthalen-1-yl)carbamoyl)-1H-pyrazole-3-sulfonamide] | ≤ 5000 nM | ≤ 500 nM
COc1cc(-c2ccc3c(c2NC(=O)NS(=O)(=O)c2ccc(=O)n(C(C)C)c2)CCC3)ccn1 [Example 70, 1-Isopropyl-N-((5-(2-methoxypyridin-4-yl)-2,3-dihydro-1H-inden-4-yl)carbamoyl)-6-oxo-1,6-dihydropyridine-3-sulfonamide] | ≤ 500 nM | ≤ 500 nM
COc1cc(-c2ccc3c(c2NC(=O)NS(=O)(=O)c2ccc(CN(C)C)cc2)CCO3)ccn1 [Example 311, 4-((Dimethylamino)methyl)-N-((5-(2-methoxypyridin-4-yl)-2,3-dihydrobenzofuran-4-yl)carbamoyl)benzenesulfonamide] | ≤ 500 nM | ≤ 500 nM
COc1cc(-c2ccc3c(c2NC(=O)NS(=O)(=O)c2ccnc(C(C)C)c2)CCC3)ccn1 [Example 178, 2-Isopropyl-N-((5-(2-methoxypyridin-4-yl)-2,3-dihydro-1H-inden-4-yl)carbamoyl)pyridine-4-sulfonamide, sodium salt] | ≤ 5000 nM | ≤ 500 nM
COc1cc(-c2ccc3c(c2NC(=O)NS(=O)(=O)c2ccn(C4CCC4)n2)CCO3)c(F)cn1 [Example 281, 1-Cyclobutyl-N-((5-(5-fluoro-2-methoxypyridin-4-yl)-2,3-dihydrobenzofuran-4-yl)carbamoyl)-1H-pyrazole-3-sulfonamide, sodium salt] | ≤ 500 nM | ≤ 500 nM
CNCc1cc(S(=O)(=O)NC(=O)Nc2c(-c3ccnc(OC)c3)ccc3c2CCC3)nn1C1CC1 [Example 190, 1-Cyclopropyl-N-((5-(2-methoxypyridin-4-yl)-2,3-dihydro-1H-inden-4-yl)carbamoyl)-5-((methylamino)methyl)-1H-pyrazole-3-sulfonamide, sodium salt] | ≤ 500 nM | ≤ 500 nM
CC(C)n1ncc(S(=O)(=O)NC(=O)Nc2c(-c3ccnc(C#N)c3)ccc3c2CCC3)n1 [Example 260, N-((5-(2-Cyanopyridin-4-yl)-2,3-dihydro-1H-inden-4-yl)carbamoyl)-2-isopropyl-2H-1,2,3-triazole-4-sulfonamide, sodium salt] | ≤ 5000 nM | ≤ 500 nM
COc1cc(-c2ccc3c(c2NC(=O)NS(=O)(=O)c2ccn(CC4CC4)n2)CCO3)ccn1 [Example 267, 1-(Cyclopropylmethyl)-N-((5-(2-methoxypyridin-4-yl)-2,3-dihydrobenzofuran-4-yl)carbamoyl)-1H-pyrazole-3-sulfonamide, sodium salt] | ≤ 500 nM | ≤ 500 nM
CC(C)n1ccc(S(=O)(=O)NC(=O)Nc2c(-c3cccnc3)ccc3ccccc23)n1 [Example 207, 1-Isopropyl-N-((2-(pyridin-3-yl)naphthalen-1-yl)carbamoyl)-1H-pyrazole-3-sulfonamide] | ≤ 5000 nM | ≤ 1000 nM
COc1cc(-c2ccc3c(c2NC(=O)NS(=O)(=O)c2cn(C(C)C)nn2)CCC3)ccn1 [Example 234, 1-Isopropyl-N-((5-(2-methoxypyridin-4-yl)-2,3-dihydro-1H-inden-4-yl)carbamoyl)-1H-1,2,3-triazole-4-sulfonamide, sodium salt] | ≤ 1000 nM | ≤ 500 nM
COc1cc(-c2ccc3c(c2NC(=O)NS(=O)(=O)c2ncn(C(C)C)n2)CCC3)ccn1 [Example 232, 1-Isopropyl-N-((5-(2-methoxypyridin-4-yl)-2,3-dihydro-1H-inden-4-yl)carbamoyl)-1H-1,2,4-triazole-3-sulfonamide, sodium salt] | ≤ 1000 nM | ≤ 500 nM
COc1cc(-c2ccc3c(c2NC(=O)NS(=O)(=O)c2ccn(C4CC4)n2)CCO3)c(F)cn1 [Example 265, 1-Cyclopropyl-N-((5-(5-fluoro-2-methoxypyridin-4-yl)-2,3-dihydrobenzofuran-4-yl)carbamoyl)-1H-pyrazole-3-sulfonamide, sodium salt] | ≤ 500 nM | ≤ 500 nM
COc1cc(-c2ccc3c(c2NC(=O)NS(=O)(=O)c2cc(C(=O)N(C)C)n(C)n2)CCC3)ccn1 [Example 169, 3-(N-((5-(2-Methoxypyridin-4-yl)-2,3-dihydro-1H-inden-4-yl)carbamoyl)sulfamoyl)-N,N,1-trimethyl-1H-pyrazole-5-carboxamide, sodium salt] | ≤ 500 nM | ≤ 500 nM
COC1(c2cc(S(=O)(=O)NC(=O)Nc3c(-c4cccnc4)cc(F)c4c3CCC4)nn2C)COC1 [Example 59, N-((7-Fluoro-5-(pyridin-3-yl)-2,3-dihydro-1H-inden-4-yl)carbamoyl)-5-(3-methoxyoxetan-3-yl)-1-methyl-1H-pyrazole-3-sulfonamide] | ≤ 1000 nM | ≤ 500 nM
COc1cc(-c2ccc3c(c2NC(=O)NS(=O)(=O)C2CN(C(C)C)C2)CCC3)ccn1 [Example 76, 1-Isopropyl-N-((5-(2-methoxypyridin-4-yl)-2,3-dihydro-1H-inden-4-yl)carbamoyl)azetidine-3-sulfonamide] | ≤ 500 nM | ≤ 500 nM
CC(C)(O)Cn1ccc(S(=O)(=O)NC(=O)Nc2c(-c3ccnc(C#N)c3)ccc3c2CCC3)n1 [Example 183, N-((5-(2-Cyanopyridin-4-yl)-2,3-dihydro-1H-inden-4-yl)carbamoyl)-1-(2-hydroxy-2-methylpropyl)-1H-pyrazole-3-sulfonamide, sodium salt] | ≤ 500 nM | ≤ 500 nM
CC(C)n1ccc(S(=O)(=O)NC(=O)Nc2c(-c3ccnc(OC4CCC4)c3)ccc3c2CCC3)n1 [Example 294, N-((5-(2-Cyclobutoxypyridin-4-yl)-2,3-dihydro-1H-inden-4-yl)carbamoyl)-1-isopropyl-1H-pyrazole-3-sulfonamide, sodium salt] | ≤ 5000 nM | ≤ 500 nM
CC(C)n1ccc(S(=O)(=O)NC(=O)Nc2c(-c3ccnc(C#N)c3)ccc3c2CCC3)n1 [Example 215, N-((5-(2-Cyanopyridin-4-yl)-2,3-dihydro-1H-inden-4-yl)carbamoyl)-1-isopropyl-1H-pyrazole-3-sulfonamide] | ≤ 500 nM | ≤ 500 nM
CC(C)c1cc(F)cc(-c2cccnc2)c1NC(=O)NS(=O)(=O)c1ccn(CCN(C)C)n1 [Example 57, 1-(2-(Dimethylamino)ethyl)-N-((4-fluoro-2-isopropyl-6-(pyridin-3-yl)phenyl)carbamoyl)-1H-pyrazole-3-sulfonamide] | ≤ 1000 nM | ≤ 1000 nM
CC(C)n1ccc(S(=O)(=O)NC(=O)Nc2c(-c3ccnc(OC4CCN(C)CC4)c3)ccc3c2CCC3)n1 [Example 287, 1-Isopropyl-N-((5-(2-((1-methylpiperidin-4-yl)oxy)pyridin-4-yl)-2,3-dihydro-1H-inden-4-yl)carbamoyl)-1H-pyrazole-3-sulfonamide, sodium salt] | ≤ 500 nM | ≤ 500 nM
CC(C)c1cc(F)cc(-c2cccc(C#N)c2)c1NC(=O)NS(=O)(=O)c1cc(CN(C)C)n(C(C)C)n1 [Example 39, N-((3′-Cyano-5-fluoro-3-iso-propyl-[1,1′-biphenyl]-2-yl)carbamoyl)-5-((dimethylamino)methyl)-1-isopropyl-1H-pyrazole-3-sulfonamide] | ≤ 1000 nM | ≤ 1000 nM

Reference: US20200361895A1, “NOVEL SULFONAMIDE CARBOXAMIDE COMPOUNDS” (Inflazome Limited, priority 2017, published 2020)
